Test results taken from ChEMBL document CHEMBL1201862, “PubChem BioAssay data set” (2004).
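A five-concentration, 48-hour dose response in 96-well plates underlies each endpoint, interpolated linearly between surrounding concentrations. Abbreviation: GI50, concentration required for 50% inhibition of growth.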 Calls of active or inactive are those of the source. No stated cut-off is given here; in the data, active = GI50 up to about 1.1 µM and inactive = higher.

Legend:
Experiment in all cases: DTP human tumour cell line panel, 48 h
SF-295 = test system: SF-295
HCC 2998 = test system: HCC 2998
786-0 = test system: 786-0
ACHN = test system: ACHN
BT-549 = test system: BT-549
MDA-MB-231 = test system: MDA-MB-231
U-251 = test system: U-251
SNB-75 = test system: SNB-75
MDA-MB-435 = test system: MDA-MB-435
SF-268 = test system: SF-268
NCI-H460 = test system: NCI-H460
OVCAR-4 = test system: OVCAR-4
SK-MEL-2 = test system: SK-MEL-2
MDA-N = test system: MDA-N
SF-539 = test system: SF-539
SK-OV-3 = test system: SK-OV-3
HCT-15 = test system: HCT-15
NCI-H522 = test system: NCI-H522
TK-10 = test system: TK-10
LOX IMVI = test system: LOX IMVI
A498 = test system: A498
UACC-62 = test system: UACC-62
HOP-62 = test system: HOP-62
MOLT-4 = test system: MOLT-4
M14 = test system: M14
CCRF-CEM = test system: CCRF-CEM
SW-620 = test system: SW-620
COLO 205 = test system: COLO 205
Malme-3M = test system: Malme-3M
OVCAR-5 = test system: OVCAR-5
PC-3 = test system: PC-3
K562 = test system: K562
CAKI-1 = test system: CAKI-1
HT-29 = test system: HT-29
A549 = test system: A549
SN12C = test system: SN12C
EKVX = test system: EKVX
MCF7 = test system: MCF7
NCI/ADR-RES = test system: NCI/ADR-RES
UACC-257 = test system: UACC-257
NCI-H226 = test system: NCI-H226
OVCAR-8 = test system: OVCAR-8
SK-MEL-28 = test system: SK-MEL-28
KM12 = test system: KM12
HOP-92 = test system: HOP-92
IGROV-1 = test system: IGROV-1
Hs-578T = test system: Hs-578T
HCT-116 = test system: HCT-116
RXF 393 = test system: RXF 393
SK-MEL-5 = test system: SK-MEL-5
SNB-19 = test system: SNB-19
OVCAR-3 = test system: OVCAR-3
RPMI-8226 = test system: RPMI-8226
UO-31 = test system: UO-31
DU-145 = test system: DU-145
NCI-H23 = test system: NCI-H23
HL-60 = test system: HL-60
T47D = test system: T47D

Compound: COc1cccc(NC(=O)c2c(SC)c(C#N)c(=O)n(N)c2N)c1
- GI50 (SF-295): 34.2 µM (inactive)
- GI50 (HCC 2998): > 100 µM (inactive)
- GI50 (786-0): 28.6 µM (inactive)
- GI50 (ACHN): > 100 µM (inactive)
- GI50 (BT-549): 61.8 µM (inactive)
- GI50 (MDA-MB-231): 95.7 µM (inactive)
- GI50 (U-251): 68.4 µM (inactive)
- GI50 (SNB-75): 1.46 µM (inactive)
- GI50 (MDA-MB-435): 97.5 µM (inactive)
- GI50 (SF-268): 72.1 µM (inactive)
- GI50 (NCI-H460): 67.1 µM (inactive)
- GI50 (OVCAR-4): 40.9 µM (inactive)
- GI50 (SK-MEL-2): > 100 µM (inactive)
- GI50 (MDA-N): > 100 µM (inactive)
- GI50 (SF-539): 66.4 µM (inactive)
- GI50 (SK-OV-3): 44.5 µM (inactive)
- GI50 (HCT-15): 66.2 µM
- GI50 (NCI-H522): 42.3 µM (inactive)
- GI50 (TK-10): > 100 µM (inactive)
- GI50 (LOX IMVI): 88.1 µM (inactive)
- GI50 (A498): 79.3 µM (inactive)
- GI50 (UACC-62): 61.5 µM (inactive)
- GI50 (HOP-62): 50.9 µM (inactive)
- GI50 (MOLT-4): 41.8 µM (inactive)
- GI50 (M14): 30.6 µM (inactive)
- GI50 (CCRF-CEM): 35.2 µM (inactive)
- GI50 (SW-620): 51.2 µM (inactive)
- GI50 (COLO 205): > 100 µM (inactive)
- GI50 (Malme-3M): > 100 µM (inactive)
- GI50 (OVCAR-5): 31.7 µM (inactive)
- GI50 (PC-3): 49.8 µM (inactive)
- GI50 (K562): 45.9 µM (inactive)
- GI50 (CAKI-1): > 100 µM (inactive)
- GI50 (HT-29): 52 µM (inactive)
- GI50 (A549): 57.7 µM (inactive)
- GI50 (SN12C): > 100 µM (inactive)
- GI50 (EKVX): > 100 µM (inactive)
- GI50 (MCF7): > 100 µM (inactive)
- GI50 (NCI/ADR-RES): 43 µM (inactive)
- GI50 (UACC-257): > 100 µM (inactive)
- GI50 (NCI-H226): > 100 µM (inactive)
- GI50 (OVCAR-8): 47.9 µM (inactive)
- GI50 (SK-MEL-28): > 100 µM (inactive)
- GI50 (KM12): > 100 µM (inactive)
- GI50 (HOP-92): 47.4 µM (inactive)
- GI50 (IGROV-1): > 100 µM (inactive)
- GI50 (Hs-578T): 41.1 µM (inactive)
- GI50 (HCT-116): 35.2 µM (inactive)
- GI50 (RXF 393): > 100 µM (inactive)
- GI50 (SK-MEL-5): 64.9 µM (inactive)
- GI50 (SNB-19): 4.52 µM (inactive)

Compound: CC1=CC2=C(C#N)C(=O)OC2(C)C(c2ccccc2)C1 (stereo not given)
- GI50 (SF-295): > 100 µM (inactive)
- GI50 (786-0): > 100 µM (inactive)
- GI50 (ACHN): > 100 µM (inactive)
- GI50 (BT-549): > 100 µM (inactive)
- GI50 (MDA-MB-231): > 100 µM (inactive)
- GI50 (U-251): > 100 µM (inactive)
- GI50 (SNB-75): 16.2 µM (inactive)
- GI50 (MDA-MB-435): > 100 µM (inactive)
- GI50 (SF-268): > 100 µM (inactive)
- GI50 (OVCAR-3): > 100 µM (inactive)
- GI50 (NCI-H460): > 100 µM (inactive)
- GI50 (OVCAR-4): 87.7 µM (inactive)
- GI50 (SK-MEL-2): > 100 µM (inactive)
- GI50 (MDA-N): > 100 µM (inactive)
- GI50 (SF-539): > 100 µM (inactive)
- GI50 (SK-OV-3): > 100 µM (inactive)
- GI50 (HCT-15): > 100 µM
- GI50 (NCI-H522): > 100 µM (inactive)
- GI50 (TK-10): > 100 µM (inactive)
- GI50 (LOX IMVI): > 100 µM (inactive)
- GI50 (A498): > 100 µM (inactive)
- GI50 (UACC-62): > 100 µM (inactive)
- GI50 (HOP-62): > 100 µM (inactive)
- GI50 (MOLT-4): > 100 µM (inactive)
- GI50 (M14): > 100 µM (inactive)
- GI50 (SW-620): > 100 µM (inactive)
- GI50 (Malme-3M): > 100 µM (inactive)
- GI50 (OVCAR-5): > 100 µM (inactive)
- GI50 (RPMI-8226): 77.8 µM (inactive)
- GI50 (PC-3): 68.5 µM (inactive)
- GI50 (K562): 68.7 µM (inactive)
- GI50 (HT-29): > 100 µM (inactive)
- GI50 (A549): > 100 µM (inactive)
- GI50 (SN12C): > 100 µM (inactive)
- GI50 (EKVX): > 100 µM (inactive)
- GI50 (NCI/ADR-RES): 72.1 µM (inactive)
- GI50 (UO-31): > 100 µM (inactive)
- GI50 (UACC-257): > 100 µM (inactive)
- GI50 (NCI-H226): > 100 µM (inactive)
- GI50 (OVCAR-8): > 100 µM (inactive)
- GI50 (SK-MEL-28): > 100 µM (inactive)
- GI50 (KM12): > 100 µM (inactive)
- GI50 (HOP-92): 87.5 µM (inactive)
- GI50 (IGROV-1): 6.04 µM (inactive)
- GI50 (Hs-578T): > 100 µM (inactive)
- GI50 (HCT-116): > 100 µM (inactive)
- GI50 (DU-145): > 100 µM (inactive)
- GI50 (SNB-19): > 100 µM (inactive)

Compound: CCC[C@H](C)C[C@H](C)C[C@H](C)/C=C(\C)[C@@H](O)[C@@H](C)C(=O)CC
- GI50 (SF-295): 22.9 µM (inactive)
- GI50 (HCC 2998): 17 µM (inactive)
- GI50 (NCI-H23): 18.9 µM (inactive)
- GI50 (786-0): 20.1 µM (inactive)
- GI50 (ACHN): 21.9 µM (inactive)
- GI50 (BT-549): 23.4 µM (inactive)
- GI50 (MDA-MB-231): 25.3 µM (inactive)
- GI50 (U-251): 22.4 µM (inactive)
- GI50 (SNB-75): 49.9 µM (inactive)
- GI50 (MDA-MB-435): 20.6 µM (inactive)
- GI50 (SF-268): 20.9 µM (inactive)
- GI50 (OVCAR-3): 19.7 µM (inactive)
- GI50 (NCI-H460): 24 µM (inactive)
- GI50 (OVCAR-4): 19.2 µM (inactive)
- GI50 (SK-MEL-2): 24.9 µM (inactive)
- GI50 (SF-539): 21 µM (inactive)
- GI50 (SK-OV-3): 36.2 µM (inactive)
- GI50 (HCT-15): 21 µM
- GI50 (NCI-H522): 17.6 µM (inactive)
- GI50 (TK-10): 23.2 µM (inactive)
- GI50 (LOX IMVI): 20.4 µM (inactive)
- GI50 (A498): 25.5 µM (inactive)
- GI50 (UACC-62): 17.1 µM (inactive)
- GI50 (HOP-62): 20.4 µM (inactive)
- GI50 (MOLT-4): 21.4 µM (inactive)
- GI50 (M14): 19.8 µM (inactive)
- GI50 (CCRF-CEM): 24.3 µM (inactive)
- GI50 (SW-620): 20.3 µM (inactive)
- GI50 (Malme-3M): 18.5 µM (inactive)
- GI50 (OVCAR-5): 19.9 µM (inactive)
- GI50 (RPMI-8226): 23.2 µM (inactive)
- GI50 (PC-3): 20 µM (inactive)
- GI50 (K562): 18.3 µM (inactive)
- GI50 (CAKI-1): 22.4 µM (inactive)
- GI50 (HT-29): 19.5 µM (inactive)
- GI50 (A549): 19.9 µM (inactive)
- GI50 (SN12C): 18.8 µM (inactive)
- GI50 (HL-60): 17.9 µM (inactive)
- GI50 (EKVX): 18.8 µM (inactive)
- GI50 (MCF7): 21.3 µM (inactive)
- GI50 (NCI/ADR-RES): 17 µM (inactive)
- GI50 (UO-31): 23 µM (inactive)
- GI50 (UACC-257): 20.1 µM (inactive)
- GI50 (NCI-H226): 21 µM (inactive)
- GI50 (OVCAR-8): 20.3 µM (inactive)
- GI50 (SK-MEL-28): 18.7 µM (inactive)
- GI50 (T47D): 23.6 µM (inactive)
- GI50 (KM12): 20.2 µM (inactive)
- GI50 (HOP-92): 20.8 µM (inactive)
- GI50 (IGROV-1): 19.3 µM (inactive)
- GI50 (Hs-578T): 25 µM (inactive)
- GI50 (HCT-116): 17.5 µM (inactive)
- GI50 (RXF 393): 20.7 µM (inactive)
- GI50 (SK-MEL-5): 18.9 µM (inactive)
- GI50 (DU-145): 23.5 µM (inactive)
- GI50 (SNB-19): 20.3 µM (inactive)
